Measurements published in PMC5259791 (Scientific Reports, 2017).

Biological target: T1, PPARγ (Homo sapiens, UniProt P37231)
T1 sequence (P37231 195-477 isoform P37231-2 limits assumed): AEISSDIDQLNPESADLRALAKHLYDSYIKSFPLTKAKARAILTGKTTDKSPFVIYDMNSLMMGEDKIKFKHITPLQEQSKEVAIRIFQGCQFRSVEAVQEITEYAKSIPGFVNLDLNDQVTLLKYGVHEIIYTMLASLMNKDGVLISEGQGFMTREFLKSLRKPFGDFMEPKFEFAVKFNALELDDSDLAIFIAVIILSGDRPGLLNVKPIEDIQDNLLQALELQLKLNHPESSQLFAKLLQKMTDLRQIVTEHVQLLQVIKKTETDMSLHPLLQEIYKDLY
Assay: SPR on immobilized PPARγ
Type: binding
Method: ; SPR analysis was also performed using the immobilized PPARγ LBD to evaluate if this protein portion was involved in the interaction with 1; […]. Conversely, no affinity of the diterpene towards Hsp60 was observed (Fig. 2c).
To assess the potential of 1 to act as a PPARγ modulator, we investigated the structural and functional aspects of its interaction with this nuclear receptor. To define the structural features required by 1 for an efficient interaction with PPARγ, as a first step, we performed SPR analyses using some diterpenes displaying structural relationship with 1 (compounds 2–9, Fig. 1). […]. SPR analyses were carried out on a BIACORE 3000 instrument (GE-Healthcare). PPARα, PPARγ, PPARδ and HSP60 surfaces were prepared on research−grade CM5 sensor chips (GE Healthcare). Proteins (100 μg/ml in 10 mM CH3COONa, pH 5.0) were immobilized using a standard amine−coupling protocol, to obtain densities of 3–5 kRU. Testing compounds were dissolved in 100% DMSO to obtain 4 mM solutions, and then diluted in PBS containing variable amounts of DMSO, achieving a final DMSO concentration of 0.1%. […]. SPR experiments and data elaboration were carried out as reported elsewhere.

SMILES: C=C1C(=O)C23CCC4C(C(=O)OC)CC(O)CC4(C)C2CCC1C3 (stereo not drawn) [Compound 1, 15-ketoatractyligenin methyl ester]
- dissociation of 1/PPARγ complex (SPR, compared with 1/PPARα complex): required longer times and was incomplete
- Kd (SPR, immobilized PPARγ): 25.8 ± 5.5 nM
- interaction with PPARγ pre-incubated with 1 (protein immobilized after 2 h incubation with 5-fold molar excess of 1): did not interact
